Here are results for 15 compounds from patent publication US20230183219A1, “CONDENSED SUBSTITUTED HYDROPYRROLES AS ANTAGONISTS OF THE MUSCARINIC ACETYLCHOLINE RECEPTOR M4” (Vanderbilt University, priority 2020, published 2023).

This experiment has as its target T1, Human M4 (Homo sapiens, UniProt P08173).
T1 construct: Human or rat M4 cDNA, along with the chimeric G protein Gqi5, were transfected into Chinese hamster ovary (CHO-K1) cells; expressed in transfected cells; host or cells: CHO-K1 (Chinese hamster ovary, ATCC), stably co-expressing Gqi5
T1 sequence (P08173 1-479): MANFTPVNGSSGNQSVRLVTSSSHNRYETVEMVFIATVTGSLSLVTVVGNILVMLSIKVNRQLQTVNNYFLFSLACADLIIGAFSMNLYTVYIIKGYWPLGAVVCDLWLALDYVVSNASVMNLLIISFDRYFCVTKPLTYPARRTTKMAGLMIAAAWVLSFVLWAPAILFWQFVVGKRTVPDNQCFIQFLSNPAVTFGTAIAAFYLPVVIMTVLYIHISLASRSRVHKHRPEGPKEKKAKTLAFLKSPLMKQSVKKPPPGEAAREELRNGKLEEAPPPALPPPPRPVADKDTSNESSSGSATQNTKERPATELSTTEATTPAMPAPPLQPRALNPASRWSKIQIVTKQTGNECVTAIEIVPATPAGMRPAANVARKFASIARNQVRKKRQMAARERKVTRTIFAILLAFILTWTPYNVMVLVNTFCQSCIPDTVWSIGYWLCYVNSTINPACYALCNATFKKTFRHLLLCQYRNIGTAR
The experiment can be described thus: mAChR M4 cell-based functional assay (calcium flux, decrease of EC80 acetylcholine response). Particulars: for remaining activity at 30 µM: % ACh maximum at 30 μM, read-out: Human M4 Emin; for IC50: M4/Gqi5/CHO-K1 cells, decrease of response to EC80 acetylcholine. The procedure, abridged:
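CHO-K1 cells stably co-expressing M4 and chimeric Gqi5, loaded with Fluo-4 AM; calcium flux read on FDSS. Compound added at 2 s, EC20 acetylcholine at 143 s, EC80 acetylcholine at 268 s. IC50 from concentration-dependent decrease of the EC80 response, four-parameter logistic fit; 10-point 1:3 titrations.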

For `Cc1cnc(F)cc1-c1cc(C(F)(F)F)c(N[C@H]2C[C@@H]3CN(CC4CCOCC4)C[C@@H]3C2)nn1` [Example 113, (3aR,5s,6aS)-N-(6-(2-fluoro-5-methylpyridin-4-yl)-4-(trifluoromethyl)pyridazin-3-yl)-2-((tetrahydro-2H-pyran-4-yl)methyl)octahydro-cyclopenta[c]pyrrol-5-amine], the remaining activity at 30 µM amounted to 3% and the IC50 worked out at 6.1 nM.
On to `[2H]C([2H])([C@H]1CCCCO1)N1C[C@H]2C[C@H](Nc3nnc(-c4cc(C)ccc4C)cc3C(F)(F)F)C[C@H]2C1` [Example 114, (3aR,5s,6aS)-N-(6-(2,5-dimethylphenyl)-4-(trifluoro-methyl)pyridazin-3-yl)-2-(((R)-tetrahydro-2H-pyran-2-yl)methyl-d2)octahydro-cyclopenta[c]pyrrol-5-amine], for which the remaining activity at 30 µM was 3% and the IC50 is 235 nM.
As for `[2H]C([2H])([C@@H]1CCOC1)N1C[C@H]2C[C@H](Nc3nnc(-c4cc(C)ccc4C)cc3C(F)(F)F)C[C@H]2C1` [Example 115, (3aR,5s,6aS)-N-(6-(2,5-dimethylphenyl)-4-(trifluoro-methyl)pyridazin-3-yl)-2-(((S)-tetrahydrofuran-3-yl)methyl-d2)octahydro-cyclopenta[c]pyrrol-5-amine], the remaining activity at 30 µM was determined as 3% and the IC50 worked out at 176 nM.
Take `[2H]C([2H])([C@H]1CCOC1)N1C[C@H]2C[C@H](Nc3nnc(-c4cc(C)ccc4C)cc3C(F)(F)F)C[C@H]2C1` [Example 116, (3aR,5s,6aS)-N-(6-(2,5-dimethylphenyl)-4-(trifluoro-methyl)pyridazin-3-yl)-2-(((R)-tetrahydrofuran-3-yl)methyl-d2)octahydro-cyclopenta[c]pyrrol-5-amine]: the remaining activity at 30 µM stood at 3% and the half-inhibitory concentration (IC50) was 266 nM.
As to `Cn1cnc2ccc(-c3cc(C(F)(F)F)c(N[C@H]4C[C@@H]5CN(Cc6ccccn6)C[C@@H]5C4)nn3)cc21` [Example 117, (3aR,5s,6aS)-N-(6-(1-methyl-1H-benzo[d]imidazol-6-yl)-4-(trifluoromethyl)pyridazin-3-yl)-2-(pyridin-2-ylmethyl)octahydro-cyclopenta[c]pyrrol-5-amine], the remaining activity at 30 µM worked out at 4% and the IC50 is 345 nM.
As for `[2H]C([2H])(C1CCOCC1)N1C[C@H]2C[C@H](Nc3nnc(-c4ccc(OC)cc4C)cc3C(F)(F)F)C[C@H]2C1` [Example 122, (3aR,5s,6aS)-N-(6-(4-methoxy-2-methylphenyl)-4-(trifluoromethyl)pyridazin-3-yl)-2-((tetrahydro-2H-pyran-4-yl)methyl-d2)octahydro-cyclopenta[c]pyrrol-5-amine], the remaining activity at 30 µM was 3% and the IC50 was 33.2 nM.
Take `[2H]C([2H])(C1CCOCC1)N1C[C@H]2C[C@H](Nc3nnc(-c4ccc5c(c4)OCC5)cc3C(F)(F)F)C[C@H]2C1` [Example 123, (3aR,5s,6aS)-N-(6-(2,3-dihydro-benzofuran-6-yl)-4-(trifluoro-methyl)pyridazin-3-yl)-2-((tetrahydro-2H-pyran-4-yl)methyl-d2)octahydro-cyclopenta[c]pyrrol-5-amine]: the remaining activity at 30 µM is 3% and the IC50 was found to be 55.3 nM.
On to `[2H]C([2H])(C1CCOCC1)N1C[C@H]2C[C@H](Nc3nnc(-c4cc(F)cc(F)c4F)cc3C(F)(F)F)C[C@H]2C1` [Example 124, (3aR,5s,6aS)-2-((tetrahydro-2H-pyran-4-yl)methyl-d2)-N-(4-(trifluoromethyl)-6-(2,3,5-trifluorophenyl)pyridazin-3-yl)octahydrocyclopenta[c]pyrrol-5-amine], for which the remaining activity at 30 µM worked out at 3% and the IC50 worked out at 173 nM.
For `[2H]C([2H])(C1CCOCC1)N1C[C@H]2C[C@H](Nc3nnc(-c4cc(F)c(F)cc4F)cc3C(F)(F)F)C[C@H]2C1` [Example 125, (3aR,5s,6aS)-2-((tetrahydro-2H-pyran-4-yl)methyl-d2)-N-(4-(trifluoromethyl)-6-(2,4,5-trifluorophenyl)pyridazin-3-yl)octahydro-cyclopenta[c]pyrrol-5-amine], in that order: 4% and 342 nM.
For the compound `[2H]C([2H])(C1CCOCC1)N1C[C@H]2C[C@H](Nc3nnc(-c4ccc(C)cc4C)cc3C(F)(F)F)C[C@H]2C1` [Example 126, (3aR,5s,6aS)-N-(6-(2,4-dimethyl-phenyl)-4-(trifluoro-methyl)pyridazin-3-yl)-2-((tetrahydro-2H-pyran-4-yl)methyl-d2)octahydro-cyclopenta[c]pyrrol-5-amine], the remaining activity at 30 µM came to 3% and the 50% inhibitory concentration (IC50) amounted to 94.2 nM.
Consider `[2H][C@@]1(Nc2nnc(-c3cccc(F)c3)cc2C(F)(F)F)C[C@H]2CN(CC3CCOCC3)C[C@H]2C1` [Example 127, (3aR,5s,6aS)-N-(6-(3-fluoro-phenyl)-4-(trifluoromethyl)pyridazin-3-yl)-2-((tetrahydro-2H-pyran-4-yl)methyl)octahydro-cyclopenta[c]pyrrol-5-d-5-amine], for which the remaining activity at 30 µM amounted to 3% and the IC50 came out at 64.7 nM.
In the case of `[2H][C@@]1(Nc2nnc(-c3ccc4nn(C)cc4c3)cc2C(F)(F)F)C[C@H]2CN(CC3CCOCC3)C[C@H]2C1` [Example 128, (3aR,5s,6aS)-N-(6-(2-methyl-2H-indazol-5-yl)-4-(trifluoro-methyl)pyridazin-3-yl)-2-((tetrahydro-2H-pyran-4-yl)methyl)octahydro-cyclopenta[c]pyrrol-5-d-5-amine], the remaining activity at 30 µM came out at 3% and the IC50 turned out to be 13.2 nM.
For `[2H]C([2H])(C1CCOCC1)N1C[C@H]2C[C@H](Nc3cc(C(F)(F)F)c(-c4cc(F)ccc4Cl)nn3)C[C@H]2C1` [Example 129, (3aR,5s,6aS)-N-(6-(2-chloro-5-fluorophenyl)-5-(trifluoro-methyl)pyridazin-3-yl)-2-((tetrahydro-2H-pyran-4-yl)methyl-d2)octahydrocyclopenta[c]pyrrol-5-amine], in that order: 2% and 2.3 nM.
Consider `[2H]C([2H])([2H])N(c1cc(C(F)(F)F)c(-c2cc(F)ccc2C)nn1)[C@H]1C[C@@H]2CN(CC3CCOCC3)C[C@@H]2C1` [Example 131, (3aR,5s,6aS)-N-(6-(5-fluoro-2-methylphenyl)-5-(trifluoromethyl)pyridazin-3-yl)-N-(methyl-d3)-2-((tetrahydro-2H-pyran-4-yl)methyl)octahydro-cyclopenta[c]pyrrol-5-amine], for which the remaining activity at 30 µM stood at 2% and the IC50 is 60.3 nM.
Take `Cc1ccc(F)cc1-c1cc(C(F)(F)F)c(O[C@H]2C[C@@H]3CN(CC4CCOCC4)C[C@@H]3C2)nn1` [Example 132, (3aR,5s,6aS)-5-((6-(5-fluoro-2-methylphenyl)-4-(trifluoromethyl)pyridazin-3-yl)oxy)-2-((tetrahydro-2H-pyran-4-yl)methyl)octahydro-cyclopenta[c]pyrrole]: the remaining activity at 30 µM was found to be 3% and the IC50 turned out to be 592 nM.
